Test results taken from publication PMC3216401 (Antiviral research, 2011).
“And” between values parts separate entries of the source, which are not always exact repeats. Identical values can stand only once. Like-named read-outs stand apart in the source and are kept apart here.

Tests used:
[1] = tested on: A/Brisbane/10/2007 (H3N2)
[2] = tested on: Influenza A/Vietnam/1203/2004 (H5N1); test: microbe, parasite or virus in culture; settings: H5N1, MDCK, read-out: IC50, Visual Assay
in vitro [3] = settings: dog
[4] = tested on: Influenza A/Vietnam/1203/2004 (H5N1)
[5] = tested on: A/Vietnam/1203/04H (A/Vietnam/1203/04 × Ann Arbor/6/60 hybrid)
[6] = mouse, in vivo
[7] = tested on: Influenza A/Sydney/05/97 (H3N2); test: microbe, parasite or virus in culture; settings: H3N2, MDCK, read-out: IC50, Neutral Red Uptake Assay
[8] = tested on: influenza A/Vietnam/1203/2004 H5N1 virus; settings: in vivo
[9] = tested on: A/Hong Kong/213/2003H (A/Hong Kong/213/2003 × Ann Arbor/6/60 hybrid)
B/Florida/4/2006 = test: microbe, parasite or virus in culture; settings: Influenza B virus, MDCK, read-out: IC50, Neutral Red Uptake Assay
[10] = tested on: influenza A/CA/07/2009 (H1N1); test: microbe, parasite or virus in culture; settings: H1N1, MDCK, read-out: IC50, Visual Assay
[11] = tested on: A/Brisbane/10/2007 (H3N2); test: microbe, parasite or virus in culture; type: cell-based; settings: Influenza A virus, H3N2, MDCK, read-out: IC90, VYR Assay
[12] = tested on: Influenza A/Vietnam/1203/2004 (H5N1); test: microbe, parasite or virus in culture; settings: H5N1, MDCK, read-out: IC50, Neutral Red Uptake Assay
B/Malaysia/2506/2004 = test: microbe, parasite or virus in culture; type: cell-based; settings: Influenza B virus, MDCK, read-out: IC90, VYR Assay
[13] = tested on: Influenza A/Vietnam/1203/2004 (H5N1); remark: listed apart in the source
in vitro [14] = settings: dog, CC50 values, range, neutral red uptake assay
A/Gull/PA/4175/83 (H5N1) = test: microbe, parasite or virus in culture; settings: Influenza A virus, H5N1, MDCK, read-out: IC50, Visual Assay
[15] = tested on: Influenza A/Vietnam/1203/2004 (H5N1); test: microbe, parasite or virus in culture; type: cell-based; settings: H5N1, MDCK, read-out: IC90, VYR Assay
[16] = tested on: Influenza A/Sydney/05/97 (H3N2)
[17] = tested on: A/Vietnam/1203/04H (A/Vietnam/1203/04 × Ann Arbor/6/60 hybrid); remark: listed apart in the source
influenza viruses = test: microbe, parasite or virus in culture; type: cell-based, influenza A and B viruses; settings: Influenza A virus, MDCK, read-out: IC50, all viruses tested
[18] = tested on: A/Hong Kong/213/2003 (H5N1); test: microbe, parasite or virus in culture; settings: Influenza A virus, H5N1, MDCK, read-out: IC50, Visual Assay
[19] = tested on: A/Thailand/2(Kan-1)/16/2004 (H5N1); test: microbe, parasite or virus in culture; type: cell-based; settings: Influenza A virus, H5N1, MDCK, read-out: IC90, VYR Assay
[20] = tested on: influenza A/CA/04/09 pandemic H1N1 virus; set-up: species or system BALB/c mice; settings: mouse, in vivo
[21] = tested on: A/Hong Kong/213/2003 (H5N1)
influenza virus = settings: in vivo; cited from earlier work
[22] = tested on: A/Hong Kong/213/2003 (H5N1); test: microbe, parasite or virus in culture; type: cell-based; settings: Influenza A virus, H5N1, MDCK, read-out: IC90, VYR Assay
[23] = tested on: A/Thailand/2(Kan-1)/16/2004 (H5N1)
[24] = tested on: A/Thailand/2(Kan-1)/16/2004 (H5N1); test: microbe, parasite or virus in culture; settings: Influenza A virus, H5N1, MDCK, read-out: IC50, Visual Assay
[25] = tested on: A/Hong Kong/213/2003 (H5N1); remark: listed apart in the source
[26] = tested on: A/Hong Kong/213/2003 (H5N1); test: microbe, parasite or virus in culture; settings: Influenza A virus, H5N1, MDCK, read-out: IC50, Neutral Red Uptake Assay
[27] = tested on: A/Thailand/2(Kan-1)/16/2004 (H5N1); test: microbe, parasite or virus in culture; settings: Influenza A virus, H5N1, MDCK, read-out: IC50, Neutral Red Uptake Assay
[28] = tested on: A/Thailand/2(Kan-1)/16/2004 (H5N1); remark: listed apart in the source

Nc1ccn([C@@H]2O[C@H](CO)[C@@H](O)C2(F)F)c(=O)n1 [2’-deoxy-2’, 2’-difluorocytidine, reference compound]
SI (CC50/IC50), Visual Assay [1]: 43
IC50 [2]: < 32 nM
CC50 (in vitro [3]; CC50 values, range, visual assay): 2.1 to 530 µM
SI (CC50/IC50), Visual Assay (A/Duck/MN/1525/81 (H5N1)): >1700
SI (CC50/IC50), Visual Assay [4]: >3100
SI (CC50/IC50), Neutral Red Uptake Assay [5]: >500
Tolerability in uninfected mice [6]: well tolerated
IC50 [7]: 1200 nM
Inhibition in the H5N1 mouse model [8]: not inhibitory
Toxicity in the H5N1 mouse model [8]: very toxic
Protection against lethal challenge ([8]; mouse): not significantly effective
SI (CC50/IC50), Visual Assay [9]: >3100
IC50 (B/Florida/4/2006): < 320 nM
IC50 [10]: 180 nM
IC90 [11]: 0.14 µM
IC50 [12]: < 32 nM
IC90 (B/Malaysia/2506/2004): 0.11 µM
SI (CC50/IC50), Neutral Red Uptake Assay [13]: >3100
CC50 (in vitro [14]): 1.1 to 280 µM
IC50 (A/Gull/PA/4175/83 (H5N1)): 210 nM
IC90 [15]: 30 nM
SI (CC50/IC50), Visual Assay [16]: 67
SI (CC50/IC50), Visual Assay [17]: >1000

Nc1ccn([C@@H]2O[C@H](CO)[C@@H](O)[C@H]2F)c(=O)n1 [2’-deoxy-2’-fluorocytidine, 2'-deoxy-2'-fluorocytidine]
SI (CC50/IC50), Visual Assay [1]: >100
IC50 (influenza viruses): < 15 µM
IC50 [18]: 50 ± 10 nM
CC50 (in vitro [3]; CC50, Visual Assay): > 100 µM
SI (CC50/IC50), Visual Assay (A/Duck/MN/1525/81 (H5N1)): >400
IC90 [19]: 690 nM
Live/Total [20]: 5/10 and 4/10 and 0/10
Mean Day of Death ± SD [20]: 7.8 ± 1.3 days and 8.9 ± 1.2 days and 9.3 ± 2.1 days
SI (CC50/IC50), Visual Assay [21]: >1954 ± 553
SI (CC50/IC50), Neutral Red Uptake Assay [5]: >29
Effect on virus lung titers in the mouse model (influenza virus): did not reduce virus lung titers
IC90 [22]: 1540 nM
SI (CC50/IC50), Visual Assay [23]: >676 ± 204
IC50 [7]: 2500 nM
IC50 [24]: 160 ± 40 nM
Maximum tolerated effective dose ([8]; female, BALB/c, mouse, ip): 60 mg/kg/day
Lung Score ± SD ([8]; mouse): 0.4 ± 0.25 and 0.2 ± 0.27
Mice protected from lethal effects ([8]; mouse): 60%
Protection from death, i.p. ([8]; mouse): partially, but significantly protected from death
Protection from mortality, per os ([8]; mouse): not protected from mortality
Virus Lung Titers ± SD ([8]; mouse): 3.60 ± 1.303 Log10/g and 4.01 ± 0.713 Log10/g
IC50 (B/Florida/4/2006): 1400 nM
SI (CC50/IC50), Neutral Red Uptake Assay [25]: >447 ± 216
IC50 [10]: 3200 nM
IC90 [11]: 6.8 µM
IC90 (B/Malaysia/2506/2004): 7.3 µM
IC50 [26]: 270 ± 140 nM
IC50 [27]: 720 ± 510 nM
SI (CC50/IC50), Neutral Red Uptake Assay [28]: >251 ± 249
IC50 (A/Gull/PA/4175/83 (H5N1)): 910 nM
SI (CC50/IC50), Visual Assay [16]: >170
SI (CC50/IC50), Visual Assay [17]: >48
